Measurements as given in patent publication US20160355530A1, “HEPATITIS C INHIBITORS AND USES THEREOF” (AbbVie Inc., priority 2010, published 2016).
Like-named read-outs stand apart in the source and are kept apart here.

Key:
[1] = tested on: HCV 1a-H77 subgenomic replicon; test: microbe, parasite or virus in culture; type: cell-based, HCV genotype 1a; details: Hepatitis C virus, stable replicon
[2] = tested on: HCV 1b-BB7 subgenomic replicon; test: microbe, parasite or virus in culture; type: cell-based, HCV genotype 1b; details: Hepatitis C virus, stable replicon
[3] = tested on: chimeric replicon with genotype 3a NS5B; test: microbe, parasite or virus in culture; type: cell-based, HCV genotype 3a; details: Hepatitis C virus, read-out: 3a chimera 5% FBS EC50
[4] = tested on: chimeric replicon with genotype 4a NS5B; test: microbe, parasite or virus in culture; type: cell-based, HCV genotype 4a; details: Hepatitis C virus, read-out: 4a chimera 5% FBS EC50
[5] = molecular target: T1, HCV NS5B polymerase 1b BK strain (Hepatitis C virus genotype 1b, UniProt P26663); test: HCV NS5B polymerase enzymatic inhibition assay, strain 1b BK; type: biochemical
T1 construct: six-histidine tag; made in house; host or cells: E. coli
In short: (§1)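 Recombinant NS5B (residues 1–570, His-tagged, E. coli-expressed) copied 5 nM of a 2.1 kb HCV 1b negative-strand 3′-end RNA template with 20 μM CTP, 20 μM ATP and 0.284 μM [3H]UTP for 3 h at 30 °C. Spermine-precipitated RNA was filter-captured and counted, and IC50 was fitted by nonlinear regression.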

[6] = tested on: HCV NS5B polymerase 1a-H77-C316Y; test: biochemical; design: species or system HCV genotype 1a; details: ratio of enzyme IC50s, 1a H77-C316Y / 1a H77
In short: as §1

[7] = molecular target: T2, HCV NS5B polymerase 1a-H77 (Hepatitis C virus genotype 1a, UniProt P27958); test: biochemical; design: species or system HCV genotype 1a
T2 construct: six-histidine tag; made in house; host or cells: E. coli
In short: as §1

[8] = molecular target: T3, HCV NS5B polymerase 1a-H77-C316Y (Hepatitis C virus genotype 1a, UniProt P27958, C2736Y); test: biochemical; design: species or system HCV genotype 1a
T3 construct: six-histidine tag; made in house; host or cells: E. coli
In short: as §1

[9] = tested on: chimeric replicon with genotype 2b NS5B; test: microbe, parasite or virus in culture; type: cell-based, HCV genotype 2b; details: Hepatitis C virus, read-out: 2b chimera 5% FBS EC50
[10] = tested on: chimeric replicon with 2a-J6CF-derived NS5B; test: microbe, parasite or virus in culture; type: cell-based, HCV genotype 2a; details: Hepatitis C virus, read-out: 2a chimera 5% FBS EC50
[11] = 5% FBS, absence of human plasma, read-out: Stable Replicon 1a H77 5% FBS EC50
[12] = strain 1a H77, 5% FBS + 40% human plasma, read-out: 1a H77 5% FBS + 40% Human Plasma EC50
[13] = strain 1a H77, 5% FBS, no human plasma, read-out: 1a H77 5% FBS EC50
[14] = strain 1a H77, 5% FBS, read-out: 1a H77 5% FBS EC50
[15] = strain 1b BB7, 5% FBS + 40% human plasma, read-out: 1b BB7 5% FBS + 40% Human Plasma EC50
[16] = strain 1b BB7, 5% FBS, no human plasma, read-out: 1b BB7 5% FBS EC50
[17] = strain 1b BB7, 5% FBS, read-out: 1b BB7 5% FBS EC50
[18] = enzyme, strain 1b BK, read-out: HCV Polymerase Strain 1b BK IC50
[19] = enzyme, strain 1a H77, read-out: HCV Polymerase Strain 1a H77 IC50

T3 sequence (P27958 2421-2990 C2736Y): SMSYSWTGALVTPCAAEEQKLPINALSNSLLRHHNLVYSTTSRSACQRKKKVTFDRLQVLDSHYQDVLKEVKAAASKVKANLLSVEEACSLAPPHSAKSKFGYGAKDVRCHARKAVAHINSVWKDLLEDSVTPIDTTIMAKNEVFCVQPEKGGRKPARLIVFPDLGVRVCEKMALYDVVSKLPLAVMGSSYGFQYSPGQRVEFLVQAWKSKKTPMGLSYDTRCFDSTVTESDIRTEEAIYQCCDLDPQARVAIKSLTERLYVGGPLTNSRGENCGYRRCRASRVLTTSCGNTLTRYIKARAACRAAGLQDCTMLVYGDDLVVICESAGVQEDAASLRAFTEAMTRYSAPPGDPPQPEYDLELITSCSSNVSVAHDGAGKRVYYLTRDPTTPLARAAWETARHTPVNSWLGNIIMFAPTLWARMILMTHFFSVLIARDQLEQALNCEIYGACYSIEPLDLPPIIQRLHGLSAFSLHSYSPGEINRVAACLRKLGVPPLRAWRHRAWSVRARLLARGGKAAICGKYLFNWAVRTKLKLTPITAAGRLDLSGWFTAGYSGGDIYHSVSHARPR
T2 sequence (P27958 2421-2990): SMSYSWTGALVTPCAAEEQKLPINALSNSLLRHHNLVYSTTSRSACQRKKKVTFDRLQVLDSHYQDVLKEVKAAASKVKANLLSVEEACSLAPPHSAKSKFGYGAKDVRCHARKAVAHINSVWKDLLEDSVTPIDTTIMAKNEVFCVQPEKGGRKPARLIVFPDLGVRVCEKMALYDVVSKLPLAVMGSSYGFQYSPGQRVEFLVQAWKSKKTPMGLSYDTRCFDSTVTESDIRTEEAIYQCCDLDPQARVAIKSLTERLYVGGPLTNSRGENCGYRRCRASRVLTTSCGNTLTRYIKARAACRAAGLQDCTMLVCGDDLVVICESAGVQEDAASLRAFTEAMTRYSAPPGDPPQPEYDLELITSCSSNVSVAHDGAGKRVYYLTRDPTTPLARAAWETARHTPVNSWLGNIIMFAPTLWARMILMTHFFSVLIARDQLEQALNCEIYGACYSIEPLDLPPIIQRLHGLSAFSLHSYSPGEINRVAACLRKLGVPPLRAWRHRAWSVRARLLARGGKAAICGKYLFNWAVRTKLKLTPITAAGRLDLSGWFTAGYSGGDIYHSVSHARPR
T1 sequence (P26663 2420-2989): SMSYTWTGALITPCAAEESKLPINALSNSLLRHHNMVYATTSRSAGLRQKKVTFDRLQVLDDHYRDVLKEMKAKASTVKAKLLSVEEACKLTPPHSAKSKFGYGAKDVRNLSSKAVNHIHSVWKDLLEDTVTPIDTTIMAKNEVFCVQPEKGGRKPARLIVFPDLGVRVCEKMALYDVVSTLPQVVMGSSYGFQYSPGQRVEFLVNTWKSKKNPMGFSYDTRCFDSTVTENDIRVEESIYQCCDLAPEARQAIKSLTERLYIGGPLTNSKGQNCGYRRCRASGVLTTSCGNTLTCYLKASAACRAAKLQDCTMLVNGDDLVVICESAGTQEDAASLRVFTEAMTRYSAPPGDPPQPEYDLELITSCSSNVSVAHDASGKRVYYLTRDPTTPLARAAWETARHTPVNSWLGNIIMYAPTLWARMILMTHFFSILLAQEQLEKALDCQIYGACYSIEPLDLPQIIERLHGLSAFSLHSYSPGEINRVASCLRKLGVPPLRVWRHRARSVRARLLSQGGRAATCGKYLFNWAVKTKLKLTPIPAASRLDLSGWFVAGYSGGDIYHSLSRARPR

Row | Compound | EC50 [1, 11] [nM] | EC50 [1, 12] [nM] | EC50 [1, 13] [nM] | EC50 [1, 14] [nM] | EC50 [2, 15] [nM] | EC50 [2, 16] [nM] | EC50 [2, 17] [nM] | EC50 [3] [nM] | EC50 [4] [nM] | IC50 [5, 18] [nM] | C316Y/1a Fold Resistance [6] [fold] | IC50 [7, 19] [nM] | IC50 [8] [nM] | EC50 [9] [nM] | EC50 [10] [nM] | IC50 [5] [nM] | IC50 [7] [nM]
1 | CS(=O)(=O)N(Cc1cnc(-c2ccc3[nH]ccc3c2)s1)c1ccc2c(-c3ncc[nH]3)c(-c3ccccc3)oc2c1 [Example 23, N-[3-(1H-imidazol-2-yl)-2-phenyl-1-benzofuran-6-yl]-N-{[2-(1H-indol-5-yl)-1,3-thiazol-5-yl]methyl}methanesulfonamide] | 230 | 10000 | 230 | 230 | 9240 | 26.4 | 26.4 | 17.3 | 313 | 10 | 7 | 3.9 | 27 | 281 | 41.6 |  | 
2 | C[S+]([O-])c1ccc(-c2ncc(CN(c3ccc4c(-c5ncc[nH]5)c(-c5ccccc5)oc4c3)S(C)(=O)=O)s2)cc1 (stereo not shown) [Example 24, N-[3-(1H-imidazol-2-yl)-2-phenyl-1-benzofuran-6-yl]-N-({2-[4-(methylsulfinyl)phenyl]-1,3-thiazol-5-yl}methyl)methanesulfonamide] | 157 | 10000 | 157 | 157 | 3850 | 12.4 | 12.4 | 5.4 | 362 | 18 | 5 | 6.9 | 36 | 193 | 206 |  | 
3 | Cn1ccc2cc(-c3ncc(CN(c4ccc5c(-c6ncc[nH]6)c(-c6ccccc6)oc5c4)S(C)(=O)=O)s3)ccc21 [Example 25, N-[3-(1H-imidazol-2-yl)-2-phenyl-1-benzofuran-6-yl]-N-{[2-(1-methyl-1H-indol-5-yl)-1,3-thiazol-5-yl]methyl}methanesulfonamide] | 266 | 10000 | 266 | 266 | 10000 | 8.2 | 8.2 | 10.7 | 452 | 15 | 7 | 6.3 | 43 | 382 | 108 |  | 
4 | Cn1cc(-c2ncc(CN(c3ccc4c(-c5ncc[nH]5)c(-c5ccccc5)oc4c3)S(C)(=O)=O)s2)cn1 [Example 26, N-[3-(1H-imidazol-2-yl)-2-phenyl-1-benzofuran-6-yl]-N-{[2-(1-methyl-1H-pyrazol-4-yl)-1,3-thiazol-5-yl]methyl}methanesulfonamide] | 343 | 10000 | 343 | 343 | 5450 | 15 | 15 | 5.2 | 377 | 10 | 3 | 12 | 30 | 497 | 277 |  | 
5 | CS(=O)(=O)N(Cc1cnc(-c2cccc(CO)c2)s1)c1ccc2c(-c3ncc[nH]3)c(-c3ccccc3)oc2c1 [Example 28, N-({2-[3-(hydroxymethyl)phenyl]-1,3-thiazol-5-yl}methyl)-N-[3-(1H-imidazol-2-yl)-2-phenyl-1-benzofuran-6-yl]methanesulfonamide] | 405 | 10000 | 405 | 405 | 10000 | 24.1 | 24.1 | 14.3 | 378 | 12 | 5 | 5.9 | 28 | 561 | 234 |  | 
6 | Cn1cnc2ccc(-c3ncc(CN(c4ccc5c(-c6ncc[nH]6)c(-c6ccccc6)oc5c4)S(C)(=O)=O)s3)cc21 [Example 30, N-[3-(1H-imidazol-2-yl)-2-phenyl-1-benzofuran-6-yl]-N-{[2-(1-methyl-1H-benzimidazol-6-yl)-1,3-thiazol-5-yl]methyl}methanesulfonamide] | 108 | 10000 | 108 | 108 | 1320 | 4 | 4 | 2.8 | 150 | 12 | 4 | 5 | 19 | 109 | 40.7 |  | 
7 | CS(=O)(=O)N(CCCOc1ccccc1)c1cc2oc(-c3ccc(F)cc3)c(-c3ncc[nH]3)c2cc1C1CC1 [Example 37, N-[5-cyclopropyl-2-(4-fluorophenyl)-3-(1H-imidazol-2-yl)-1-benzofuran-6-yl]-N-(3-phenoxypropyl)methanesulfonamide] | 348 | 1390 | 348 | 348 | 529 | 145 | 145 | 166 | 598 | 24 | 26 | 5.5 | 144 | 751 | 522 |  | 
8 | CS(=O)(=O)N(CC1CCOCC1)c1cc2oc(-c3ccc(F)cc3)c(-c3ncc[nH]3)c2cc1C1CC1 [Example 38, N-[5-cyclopropyl-2-(4-fluorophenyl)-3-(1H-imidazol-2-yl)-1-benzofuran-6-yl]-N-(tetrahydro-2H-pyran-4-ylmethyl)methanesulfonamide] | 10.2 | 117 | 10.2 | 10.2 | 245 | 12.7 | 12.7 | 25.2 | 161 | 33 | 30 | 5 | 148 | 81.4 | 88.2 |  | 
9 | CS(=O)(=O)N(CCCN1CCCCC1)c1cc2oc(-c3ccc(F)cc3)c(C3=NOCCN3)c2cc1C1CC1 [Example 130, N-[5-cyclopropyl-3-(5,6-dihydro-4H-1,2,4-oxadiazin-3-yl)-2-(4-fluorophenyl)-1-benzofuran-6-yl]-N-[3-(piperidin-1-yl)propyl]methanesulfonamide] | 44.2 | 296 | 44.2 | 44.2 | 110 | 26 | 26 | 42.6 | 416 | 229 | 20 | 20.5 | 412 |  | 74 |  | 
10 | COc1ccc(CN(c2cc3oc(-c4ccc(F)cc4)c(-c4ncc(C)[nH]4)c3cc2C2CC2)S(C)(=O)=O)cc1 [Example 188, N-[5-cyclopropyl-2-(4-fluorophenyl)-3-(5-methyl-1H-imidazol-2-yl)-1-benzofuran-6-yl]-N-(4-methoxybenzyl)methanesulfonamide] | 399 | 8460 | 399 | 399 | 2030 | 208 | 208 |  |  | 55 | 15 | 15.4 | 224 |  |  |  | 
11 | CS(=O)(=O)N(Cc1cc(O)no1)c1cc2oc(-c3ccc(F)cc3)c(-c3ncc[nH]3)c2cc1C1CC1 [Example 190, N-[5-cyclopropyl-2-(4-fluorophenyl)-3-(1H-imidazol-2-yl)-1-benzofuran-6-yl]-N-[(3-hydroxy-1,2-oxazol-5-yl)methyl]methanesulfonamide] | 263 | 3460 |  | 263 | 1370 |  | 116 |  |  |  | 112 |  | 500 |  |  | 26 | 4.5
